Broadly, the EC50 is the concentration needed to bring the measured effect to its halfway point. Read a low EC50 as an effect from little substance.

In the assay the target is T1, F508delCFTR cell surface expression in CFBE41o-F508delCFTR-HRP cells (Homo sapiens, UniProt P13569, DEL508-508).
T1 construct: fused on or other part: Horseradish peroxidase (HRP) reporter inserted in the fourth exofacial (extracellular) loop of CFTR; expression is doxycycline-inducible
Put plainly: Cell Surface Expression-Horse Radish Peroxidase (CSE-HRP) Assay. Type of assay: cell-based. Particulars: for EC50: CFBE41o-F508delCFTR-HRP cells, 18-24 hours at 33° C., 8-point curve, highest concentration 20 μM; for Maximum % activity (%): maximum at any tested concentration, normalized to on-plate positive control (3 μM). In a few lines:
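CFBE41o- cells with HRP-tagged F508delCFTR, expression induced by 0.5 μg/mL doxycycline for 72 h at 37 °C, then compound for 18-24 h at 33 °C (8-point, 3-fold, top 20 μM). Surface HRP measured by luminol luminescence; % activity normalised to 3 μM positive-control corrector; EC50 from variable-slope sigmoidal fit, three replicate plates.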

T1 sequence (P13569 with tags, fused parts or gaps DEL508-508 limits assumed): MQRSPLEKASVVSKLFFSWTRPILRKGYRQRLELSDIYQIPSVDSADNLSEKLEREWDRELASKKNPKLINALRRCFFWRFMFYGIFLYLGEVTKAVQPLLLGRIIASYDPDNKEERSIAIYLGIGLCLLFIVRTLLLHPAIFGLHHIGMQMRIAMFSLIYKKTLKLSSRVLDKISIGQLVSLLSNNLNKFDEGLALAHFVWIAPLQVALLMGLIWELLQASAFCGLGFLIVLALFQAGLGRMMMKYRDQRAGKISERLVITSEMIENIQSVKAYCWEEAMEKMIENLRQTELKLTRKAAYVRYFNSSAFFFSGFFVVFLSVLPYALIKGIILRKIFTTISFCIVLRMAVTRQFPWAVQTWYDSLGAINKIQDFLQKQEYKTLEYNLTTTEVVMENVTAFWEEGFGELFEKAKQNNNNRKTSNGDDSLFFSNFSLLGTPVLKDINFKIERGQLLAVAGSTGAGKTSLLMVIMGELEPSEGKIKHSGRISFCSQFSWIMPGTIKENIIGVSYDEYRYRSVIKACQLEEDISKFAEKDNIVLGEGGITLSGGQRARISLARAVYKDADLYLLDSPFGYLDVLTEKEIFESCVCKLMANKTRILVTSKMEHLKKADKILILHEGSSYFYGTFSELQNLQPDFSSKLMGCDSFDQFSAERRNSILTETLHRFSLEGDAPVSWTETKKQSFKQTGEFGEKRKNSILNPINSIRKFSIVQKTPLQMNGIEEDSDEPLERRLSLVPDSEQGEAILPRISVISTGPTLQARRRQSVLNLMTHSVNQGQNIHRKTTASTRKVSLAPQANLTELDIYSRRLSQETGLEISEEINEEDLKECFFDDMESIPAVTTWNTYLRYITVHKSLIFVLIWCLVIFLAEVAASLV
T1 sequence (P13569 919-1480 limits assumed, stated change not applied): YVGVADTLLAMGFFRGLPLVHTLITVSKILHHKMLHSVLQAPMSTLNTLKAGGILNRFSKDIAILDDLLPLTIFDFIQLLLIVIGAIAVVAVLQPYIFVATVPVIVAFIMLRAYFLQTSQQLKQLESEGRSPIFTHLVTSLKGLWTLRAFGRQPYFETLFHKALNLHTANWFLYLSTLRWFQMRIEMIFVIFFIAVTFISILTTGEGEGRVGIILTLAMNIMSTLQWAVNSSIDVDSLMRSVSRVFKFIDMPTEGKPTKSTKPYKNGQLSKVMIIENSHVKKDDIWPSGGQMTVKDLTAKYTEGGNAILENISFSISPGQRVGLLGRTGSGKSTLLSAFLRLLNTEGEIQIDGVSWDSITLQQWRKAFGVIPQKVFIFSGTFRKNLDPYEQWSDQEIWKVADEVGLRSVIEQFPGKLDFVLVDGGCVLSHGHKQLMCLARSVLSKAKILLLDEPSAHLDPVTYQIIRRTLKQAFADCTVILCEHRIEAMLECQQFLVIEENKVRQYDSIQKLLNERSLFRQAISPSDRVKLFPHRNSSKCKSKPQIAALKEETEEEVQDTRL

On to `CC(C)(CO)c1cc2cc(NC(=O)[C@@]3(C)COc4cc5c(cc43)OC(F)(F)O5)c(F)cc2[nH]1` [Example 143, (7R)-2,2-difluoro-N-[6-fluoro-2-(1-hydroxy-2-methylpropan-2-yl)-1H-indol-5-yl]-7-methyl-6,7-dihydro-2H-furo[2,3-f][1,3]benzodioxole-7-carboxamide], for which it took 0.49 µM to reach a half-maximal effect (EC50) and the “Maximum % activity (%)” value is on record as 129%.

`COc1ccc2c(c1)O[C@@H](c1cnc([C@@H](O)CO)cn1)C[C@H]2NC(=O)[C@@]1(C)COc2cc3c(cc21)OC(F)(F)O3` (single isomer, unassigned) [Example 191]: the EC50 came out at 0.07 µM and the “Maximum % activity (%)” value was 123%.

As to `CC1(C)CCN(c2cccc(NC(=O)[C@@]3(C)COc4cc5c(cc43)OC(F)(F)O5)n2)C1` [Example 101, (7R)—N-[6-(3,3-dimethylpyrrolidin-1-yl)pyridin-2-yl]-2,2-difluoro-7-methyl-6,7-dihydro-2H-furo[2,3-f][1,3]benzodioxole-7-carboxamide], the EC50 was found to be 0.87 µM and the “Maximum % activity (%)” value was found to be 116%.

In the case of `C[C@]1(C(=O)N[C@@H]2C[C@H]([C@H]3CC[C@H](C(=O)NC(CO)c4ccccc4)CC3)Oc3cc(OC(F)(F)F)ccc32)COc2cc3c(cc21)OC(F)(F)O3` (stereo partly drawn) [Example 269, (7R)-2,2-difluoro-N-[(2R,4R)-2-{trans-4-[(2-hydroxy-1-phenylethyl)carbamoyl]cyclohexyl}-7-(trifluoromethoxy)-3,4-dihydro-2H-1-benzopyran-4-yl]-7-methyl-6,7-dihydro-2H-furo[2,3-f][1,3]benzodioxole-7-carboxamide], the EC50 came to 0.05 µM and the “Maximum % activity (%)” value stood at 192%.

`C[C@]1(C(=O)N[C@@H]2C[C@H](C3CCN(C(=O)OCc4ccccc4)CC3)Oc3cc(OC(F)(F)F)ccc32)COc2cc3c(cc21)OC(F)(F)O3` [Example 224, benzyl 4-[(2R,4R)-4-{[(7R)-2,2-difluoro-7-methyl-6,7-dihydro-2H-furo[2,3-f][1,3]benzodioxole-7-carbonyl]amino}-7-(trifluoromethoxy)-3,4-dihydro-2H-1-benzopyran-2-yl]piperidine-1-carboxylate]: the midpoint of the response, the EC50, lay at 0.31 µM and the “Maximum % activity (%)” value was found to be 199%.

For `COC(=O)c1cccc(-n2nc(C3CC3)cc(NC(=O)[C@@]3(C)COc4cc5c(cc43)OC(F)(F)O5)c2=O)c1` [Example 28, methyl 3-[3-cyclopropyl-5-{[(7R)-2,2-difluoro-7-methyl-6,7-dihydro-2H-furo[2,3-f][1,3]benzodioxole-7-carbonyl]amino}-6-oxopyridazin-1(6H)-yl]benzoate], the EC50 was 1.42 µM and the “Maximum % activity (%)” value is listed as 112%.

As for `CCOC(=O)[C@H]1CC[C@@H]([C@H]2C[C@@H](NC(=O)[C@@]3(C)COc4cc5c(cc43)OC(F)(F)O5)c3ccc(OC(F)(F)F)cc3O2)CC1` [Example 157, ethyl cis-4-[(2R,4R)-4-{[(7R)-2,2-difluoro-7-methyl-6,7-dihydro-2H-furo[2,3-f][1,3]benzodioxole-7-carbonyl]amino}-7-(trifluoromethoxy)-3,4-dihydro-2H-1-benzopyran-2-yl]cyclohexane-1-carboxylate], the EC50 came out at 0.168 µM and the “Maximum % activity (%)” value is reported as 117%.

With `C[C@]1(C(=O)N[C@H]2C[C@@H]([C@H]3CC[C@@H](C(=O)O)CC3)Oc3cc(OC(F)(F)F)ccc32)COc2cc3c(cc21)OC(F)(F)O3` [Example 161, cis-4-[(2S,4S)-4-{[(7R)-2,2-difluoro-7-methyl-6,7-dihydro-2H-furo[2,3-f][1,3]benzodioxole-7-carbonyl]amino}-7-(trifluoromethoxy)-3,4-dihydro-2H-1-benzopyran-2-yl]cyclohexane-1-carboxylic acid], the EC50 was determined as 5.09 µM and the “Maximum % activity (%)” value is 101%.

Turning to `C[C@]1(C(=O)Nc2cc(-c3ccccc3)nn(C[C@H](O)[C@H](O)CO)c2=O)COc2cc3c(cc21)OC(F)(F)O3` [Example 105, (7R)-2,2-difluoro-7-methyl-N-{3-oxo-6-phenyl-2-[(2S,3R)-2,3,4-trihydroxybutyl]-2,3-dihydropyridazin-4-yl}-6,7-dihydro-2H-furo[2,3-f][1,3]benzodioxole-7-carboxamide], the EC50 is over 20 µM and the “Maximum % activity (%)” value worked out at 5%.

`C[C@]1(C(=O)N[C@@H]2C[C@H]([C@H]3CC[C@H](C(=O)N4CCOCC4)CC3)Oc3cc(OC(F)(F)F)ccc32)COc2cc3c(cc21)OC(F)(F)O3` [Example 271, (7R)-2,2-difluoro-7-methyl-N-[(2R,4R)-2-[trans-4-(morpholine-4-carbonyl)cyclohexyl]-7-(trifluoromethoxy)-3,4-dihydro-2H-1-benzopyran-4-yl]-6,7-dihydro-2H-furo[2,3-f][1,3]benzodioxole-7-carboxamide]: the midpoint of the response, the EC50, lay at 0.06 µM and the “Maximum % activity (%)” value was determined as 172%.

For the compound `C[C@]1(C(=O)Nc2cccc(N3CC[C@@H](S(C)(=O)=O)C3)n2)COc2cc3c(cc21)OC(F)(F)O3` [Example 111, (7R)-2,2-difluoro-N-{6-[(3R)-3-(methanesulfonyl)pyrrolidin-1-yl]pyridin-2-yl}-7-methyl-6,7-dihydro-2H-furo[2,3-f][1,3]benzodioxole-7-carboxamide], the EC50 turned out to be 0.54 µM and the “Maximum % activity (%)” value stood at 91%.

In the case of “1-(6-{[(7R)-2,2-difluoro-7-methyl-6,7-dihydro-2H-furo[2,3-f][1,3]benzodioxole-7-carbonyl]amino}pyridin-2-yl)-4,4-dimethylpyrrolidine-3-carboxylic acid [Example 115]”, the EC50 is 1 µM and the “Maximum % activity (%)” value is on record as 147%.

With `CC1(C(=O)Nc2ccc(N3CC(C(=O)O)C3)cc2)COc2cc3c(cc21)OC(F)(F)O3` (stereo not drawn) [Example 61, 1-{4-[(2,2-difluoro-7-methyl-6,7-dihydro-2H-furo[2,3-f][1,3]benzodioxole-7-carbonyl)amino]phenyl}azetidine-3-carboxylic acid], the EC50 is over 20 µM and the “Maximum % activity (%)” value was found to be 8%.

On to `COc1ccc2c(c1)O[C@@H](c1ccc(C(=O)O)cc1)C[C@H]2NC(=O)[C@@]1(C)CCc2c1ccc1c2OCO1` [Example 42, 4-[(2R,4R)-7-methoxy-4-{[(6S)-6-methyl-7,8-dihydro-2H,6H-indeno[4,5-d][1,3]dioxole-6-carbonyl]amino}-3,4-dihydro-2H-1-benzopyran-2-yl]benzoic acid], for which a half-maximal effect (EC50) was put at 1.06 µM and the “Maximum % activity (%)” value is recorded as 61%.

As for `C[C@]1(C(=O)N[C@H]2C[C@@H](C3CCNCC3)Oc3cc(OC(F)(F)F)ccc32)COc2cc3c(cc21)OC(F)(F)O3` [Example 185, (7R)-2,2-difluoro-7-methyl-N-[(2S,4S)-2-(piperidin-4-yl)-7-(trifluoromethoxy)-3,4-dihydro-2H-1-benzopyran-4-yl]-6,7-dihydro-2H-furo[2,3-f][1,3]benzodioxole-7-carboxamide], the response was half-maximal at 3.35 µM (EC50) and the “Maximum % activity (%)” value was 31%.

For the compound `COc1ccc2c(c1)O[C@@H](COC[C@H](O)CO)C[C@H]2NC(=O)[C@@]1(C)COc2cc3c(cc21)OC(F)(F)O3` [Example 274, (7R)—N-[(2R,4R)-2-{[(2R)-2,3-dihydroxypropoxy]methyl}-7-methoxy-3,4-dihydro-2H-1-benzopyran-4-yl]-2,2-difluoro-7-methyl-6,7-dihydro-2H-furo[2,3-f][1,3]benzodioxole-7-carboxamide], it took 0.85 µM to reach a half-maximal effect (EC50) and the “Maximum % activity (%)” value came out at 99%.

Take “4-[(2R,4S,6R)-4-{[(7R)-2,2-difluoro-7-methyl-6,7-dihydro-2H-furo[2,3-f][1,3]benzodioxole-7-carbonyl]amino}-6-methyloxan-2-yl]benzoic acid and 4-[(2S,4R,6S)-4-{[(7R)-2,2-difluoro-7-methyl-6,7-dihydro-2H-furo[2,3-f][1,3]benzodioxole-7-carbonyl]amino}-6-methyloxan-2-yl]benzoic acid [Example 43]”: the EC50 came out at 2.51 µM and the “Maximum % activity (%)” value stood at 93%.

Regarding `CC1(C(=O)Nc2cccc(-c3ccccc3)c2)COc2cc3c(cc21)OC(F)(F)O3` (stereo not drawn) [Example 54, N-([1,1′-biphenyl]-3-yl)-2,2-difluoro-7-methyl-6,7-dihydro-2H-furo[2,3-f][1,3]benzodioxole-7-carboxamide], the EC50 stood at 6.45 µM and the “Maximum % activity (%)” value was determined as 151%.

In the case of `COc1ccc2c(c1)O[C@@H](c1ccc(OCc3ccccc3)nn1)C[C@H]2NC(=O)[C@@]1(C)COc2cc3c(cc21)OC(F)(F)O3` (single isomer, unassigned) [Example 273], a half-maximal effect (EC50) was put at 0.12 µM and the “Maximum % activity (%)” value stood at 92%.

Regarding `COc1ccc2c(c1)O[C@@H](Cn1ncccc1=O)C[C@H]2NC(=O)[C@@]1(C)COc2cc3c(cc21)OC(F)(F)O3` [Example 285, (7R)-2,2-difluoro-N-{(2R,4R)-7-methoxy-2-[(6-oxopyridazin-1(6H)-yl)methyl]-3,4-dihydro-2H-1-benzopyran-4-yl}-7-methyl-6,7-dihydro-2H-furo[2,3-f][1,3]benzodioxole-7-carboxamide], the EC50 worked out at 1.13 µM and the “Maximum % activity (%)” value is given as 54%.

For `C[C@]1(C(=O)N[C@H]2C[C@@H]([C@H]3CC[C@H](C(=O)O)CC3)Oc3cc(OC(F)F)ccc32)COc2cc3c(cc21)OC(F)(F)O3` [Example 163, trans-4-[(2S,4S)-7-(difluoromethoxy)-4-{[(7R)-2,2-difluoro-7-methyl-6,7-dihydro-2H-furo[2,3-f][1,3]benzodioxole-7-carbonyl]amino}-3,4-dihydro-2H-1-benzopyran-2-yl]cyclohexane-1-carboxylic acid], the EC50 was found to be 0.81 µM and the “Maximum % activity (%)” value worked out at 75%.
